The structures appear in SMILES notation.

The experiment has as its system PC3 cells. Briefly: NAMPT Cell Proliferation Assay. The experiment is classed as cell-based. As to conditions: Homo sapiens, PC-3, 120 h, 5 days incubation, cell viability by Cell Titer Glo. The method in brief: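 Cell Titer Glo viability after 5-day exposure (37° C, 5% CO2); PC3, 500 cells/well, RPMI + 10% heat-inactivated FBS, overnight attachment before dosing. Dose range 10 μM to 1×10^−5 μM, 10-fold steps. IC50 = sigmoidal fit of % inhibition.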
A general note: ATP-based viability assays read luminescence as a measure of living cells.
A word on the IC50: it is the concentration that inhibits the measured activity by half. A higher IC50 goes with weaker potency. The molecule `CC1(Cn2cc(-c3ccc(C(=O)NCc4cn5ccnc5cn4)s3)cn2)CCOCC1` [Example 861, N-(imidazo[1,2-a]pyrazin-6-ylmethyl)-5-{1-[(4-methyltetrahydro-2H-pyran-4-yl)methyl]-1H-pyrazol-4-yl}thiophene-2-carboxamide] came in with an IC50 of 0.574 nM.

The molecule `N#Cc1ccsc1C(=O)N1CCC(c2ccc(C(=O)NCc3ccn4ccnc4c3)cc2)CC1` [Example 1103, 4-{1-[(3-cyanothiophen-2-yl)carbonyl]piperidin-4-yl}-N-(imidazo[1,2-a]pyridin-7-ylmethyl)benzamide] came in with an IC50 of 4.24 nM.

The molecule `CC(C)(C)CC(=O)N1CCC(c2ccc(NC(=O)NCc3ccn4ccnc4c3)cc2)CC1` [Example 940, 1-{4-[1-(3,3-dimethylbutanoyl)piperidin-4-yl]phenyl}-3-(imidazo[1,2-a]pyridin-7-ylmethyl)urea] displayed a concentration for half-maximal inhibition (IC50) of 0.691 nM.

Molecule `CCc1c(C(=O)N2CCC(c3ccc(C(=O)NCc4ccn5ccnc5c4)cc3)CC2)nnn1CC` [Example 1091, 4-{1-[(1,5-diethyl-1H-1,2,3-triazol-4-yl)carbonyl]piperidin-4-yl}-N-(imidazo[1,2-a]pyridin-7-ylmethyl)benzamide] gave an IC50 of 4.19 nM. This IC50 lies about 6.1-fold higher than the previous one.

Take `O=C(NCc1ccn2ccnc2c1)c1ccc(NC(=O)c2ccc(F)cc2F)cc1` [Example 873, 2,4-difluoro-N-{4-[(imidazo[1,2-a]pyridin-7-ylmethyl)carbamoyl]phenyl}benzamide]: the IC50 turned out to be 3870 nM.

In turn, `COCCn1nc(C2CC2)cc1-c1ccc(C(=O)NCc2ccn3ccnc3c2)s1` [Example 893, 5-[3-cyclopropyl-1-(2-methoxyethyl)-1H-pyrazol-5-yl]-N-(imidazo[1,2-a]pyridin-7-ylmethyl)thiophene-2-carboxamide] yielded an IC50 of 0.662 nM.

Regarding `O=C(NCc1ccn2ccnc2c1)c1ccc(C2CCN(C(=O)C3(c4ccccn4)CC3)CC2)cc1` [Example 966, N-(imidazo[1,2-a]pyridin-7-ylmethyl)-4-(1-{[1-(pyridin-2-yl)cyclopropyl]carbonyl}piperidin-4-yl)benzamide], the IC50 came out at 2.09 nM.

Molecule `O=C(NCc1ccn2ccnc2c1)c1ccc(C2=CCN(c3cc(C(F)(F)F)ncn3)CC2)cc1` [Example 1156, N-(imidazo[1,2-a]pyridin-7-ylmethyl)-4-{1-[6-(trifluoromethyl)pyrimidin-4-yl]-1,2,3,6-tetrahydropyridin-4-yl}benzamide] registered a 50% inhibitory concentration (IC50) of 35.4 nM.

`COc1ncccc1/C=C/C(=O)N1CCC(c2ccc(C(=O)NCc3ccn4ccnc4c3)cc2)CC1` [Example 990, N-(imidazo[1,2-a]pyridin-7-ylmethyl)-4-{1-[(2E)-3-(2-methoxypyridin-3-yl)prop-2-enoyl]piperidin-4-yl}benzamide] showed an IC50 of 17.9 nM. This IC50 lies about 2-fold lower than the previous one.

Molecule `N#Cc1cc(F)cc(C(=O)N2CCC(c3ccc(C(=O)NCc4ccn5ccnc5c4)cc3)CC2)c1` [Example 996, 4-[1-(3-cyano-5-fluorobenzoyl)piperidin-4-yl]-N-(imidazo[1,2-a]pyridin-7-ylmethyl)benzamide] registered a half-maximal inhibitory concentration (IC50) of 62 nM.

Take `CC(Oc1cccc(F)c1)C(=O)N1CCC(c2ccc(C(=O)NCc3ccn4ccnc4c3)cc2)CC1` (centres unmarked) [Example 968, 4-{1-[2-(3-fluorophenoxy)propanoyl]piperidin-4-yl}-N-(imidazo[1,2-a]pyridin-7-ylmethyl)benzamide]: half-maximal inhibition (IC50) was put at 1.77 nM.

Consider `CCC1CCCCN1C(=O)C(=O)N1CCC(c2ccc(C(=O)NCc3ccn4ccnc4c3)cc2)CC1` (centres unmarked) [Example 1117, 4-{1-[(2-ethylpiperidin-1-yl)(oxo)acetyl]piperidin-4-yl}-N-(imidazo[1,2-a]pyridin-7-ylmethyl)benzamide], for which inhibition was half-maximal at 65.7 nM (IC50).

`O=C(NCc1ccn2ccnc2c1)Nc1ccc(C2CCN(C(=O)c3ccoc3C(F)(F)F)CC2)cc1` [Example 1153, 1-(imidazo[1,2-a]pyridin-7-ylmethyl)-3-[4-(1-{[2-(trifluoromethyl)furan-3-yl]carbonyl}piperidin-4-yl)phenyl]urea] yielded an IC50 of 1.72 nM.

Molecule `CC(C)(C)OC(=O)N1CCC(c2ccc(NC(=O)NCc3ccn4ccnc4c3)c(F)c2)CC1` [Example 912, tert-butyl 4-(3-fluoro-4-{[(imidazo[1,2-a]pyridin-7-ylmethyl)carbamoyl]amino}phenyl)piperidine-1-carboxylate] registered a half-maximal inhibitory concentration (IC50) of 8.72 nM.

`O=C(NCc1ccn2ccnc2c1)c1ccc(C2CCN(C(=O)c3ccn(C4CCCC4)n3)CC2)cc1` [Example 967, 4-{1-[(1-cyclopentyl-1H-pyrazol-3-yl)carbonyl]piperidin-4-yl}-N-(imidazo[1,2-a]pyridin-7-ylmethyl)benzamide] showed an IC50 of 3.96 nM.

`N#Cc1csc(C(=O)N2CCC(c3ccc(C(=O)NCc4ccn5ccnc5c4)cc3)CC2)c1` [Example 1110, 4-{1-[(4-cyanothiophen-2-yl)carbonyl]piperidin-4-yl}-N-(imidazo[1,2-a]pyridin-7-ylmethyl)benzamide] had an IC50 of 111 nM. This IC50 is about 28-fold higher than that of the molecule before.

Molecule `O=C(NCc1ccn2ccnc2c1)c1ccc(NC(=O)c2ccc(F)c(F)c2)cc1` [Example 872, 3,4-difluoro-N-{4-[(imidazo[1,2-a]pyridin-7-ylmethyl)carbamoyl]phenyl}benzamide] showed an IC50 above 10000 nM.

On to `N#CC1(C(=O)N2CCC(c3ccc(C(=O)NCc4ccn5ccnc5c4)cc3)CC2)CCCC1` [Example 982, 4-{1-[(1-cyanocyclopentyl)carbonyl]piperidin-4-yl}-N-(imidazo[1,2-a]pyridin-7-ylmethyl)benzamide], for which 100 nM corresponded to half-maximal inhibition (IC50).

Consider `O=C(NCc1ccn2ccnc2c1)Nc1ccc(C2CCN(C(=O)c3cnc(C4CC4)s3)CC2)cc1` [Example 1121, 1-(4-{1-[(2-cyclopropyl-1,3-thiazol-5-yl)carbonyl]piperidin-4-yl}phenyl)-3-(imidazo[1,2-a]pyridin-7-ylmethyl)urea], for which the IC50 turned out to be 8.42 nM. Against the preceding molecule, the IC50 is about 12-fold lower.

`O=C(Cc1ccn2ccnc2c1)Nc1ccc(C2CCN(C(=O)c3ccccc3F)CC2)cc1` [Example 905, N-{4-[1-(2-fluorobenzoyl)piperidin-4-yl]phenyl}-2-(imidazo[1,2-a]pyridin-7-yl)acetamide] registered an IC50 of 0.994 nM. This IC50 is about 8.5-fold lower than that of the molecule before.

The molecule `COc1cc(C(=O)N2CCC(c3ccc(NC(=O)NCc4ccn5ccnc5c4)cc3)CC2)ncc1C` [Example 1136, 1-(imidazo[1,2-a]pyridin-7-ylmethyl)-3-(4-{1-[(4-methoxy-5-methylpyridin-2-yl)carbonyl]piperidin-4-yl}phenyl)urea] came in with a 50% inhibitory concentration (IC50) of 3.02 nM. This IC50 is about 3-fold higher than that of the molecule before.

Molecule `CC(C)Cc1cc(-c2ccc(C(=O)NCc3ccn4ccnc4c3)s2)n(C)n1` [Example 906, N-(imidazo[1,2-a]pyridin-7-ylmethyl)-5-[1-methyl-3-(2-methylpropyl)-1H-pyrazol-5-yl]thiophene-2-carboxamide] registered a half-maximal inhibitory concentration (IC50) of 4.17 nM. The IC50 values of the last two molecules are within 1.5-fold of each other.

With `CC1(C(=O)N2CCC(c3ccc(C(=O)NCc4cn5ccnc5cn4)s3)CC2)CC1` [Example 839, N-(imidazo[1,2-a]pyrazin-6-ylmethyl)-5-{1-[(1-methylcyclopropyl)carbonyl]piperidin-4-yl}thiophene-2-carboxamide], 0.607 nM corresponded to half-maximal inhibition (IC50). This IC50 is about 6.9-fold lower than that of the molecule before.

Molecule `Cc1cc(C(=O)N2CCC(c3ccc(C(=O)NCc4ccn5ccnc5c4)cc3)CC2)cc(Cl)n1` [Example 932, 4-{1-[(2-chloro-6-methylpyridin-4-yl)carbonyl]piperidin-4-yl}-N-(imidazo[1,2-a]pyridin-7-ylmethyl)benzamide] returned an IC50 of 30.3 nM.

`Cn1cc2c(C(=O)N3CCC(c4ccc(C(=O)NCc5ccn6ccnc6c5)cc4)CC3)cccc2n1` [Example 1116, N-(imidazo[1,2-a]pyridin-7-ylmethyl)-4-{1-[(2-methyl-2H-indazol-4-yl)carbonyl]piperidin-4-yl}benzamide]: inhibition was half-maximal at 6.19 nM (IC50).

For `O=C(NCc1ccn2ccnc2c1)Nc1ccc(C2CCN(C(=O)c3ccn(C4CCCC4)n3)CC2)cc1` [Example 1021, 1-(4-{1-[(1-cyclopentyl-1H-pyrazol-3-yl)carbonyl]piperidin-4-yl}phenyl)-3-(imidazo[1,2-a]pyridin-7-ylmethyl)urea], the midpoint of inhibition, the IC50, lay at 1.11 nM. This IC50 is about 5.6-fold lower than that of the molecule before.

`COc1ncc(C)cc1C(=O)N1CCC(c2ccc(C(=O)NCc3ccn4ccnc4c3)cc2)CC1` [Example 1114, N-(imidazo[1,2-a]pyridin-7-ylmethyl)-4-{1-[(2-methoxy-5-methylpyridin-3-yl)carbonyl]piperidin-4-yl}benzamide] came in with an IC50 of 21.8 nM.

With `Cn1nc(C2CC2)cc1C(=O)N1CCC(c2ccc(C(=O)NCc3ccn4ccnc4c3)cc2)CC1` [Example 960, 4-{1-[(3-cyclopropyl-1-methyl-1H-pyrazol-5-yl)carbonyl]piperidin-4-yl}-N-(imidazo[1,2-a]pyridin-7-ylmethyl)benzamide], the IC50 stood at 6.13 nM. Against the preceding molecule, the IC50 is about 3.6-fold lower.

In the case of `Cc1cccc(C(=O)N2CCC(c3ccc(NC(=O)NCc4ccn5ccnc5c4)cc3)CC2)c1O` [Example 957, 1-{4-[1-(2-hydroxy-3-methylbenzoyl)piperidin-4-yl]phenyl}-3-(imidazo[1,2-a]pyridin-7-ylmethyl)urea], the IC50 stood at 3.51 nM. This IC50 is about 1.7-fold lower than that of the molecule before.

As to `O=C(NCc1ccn2ccnc2c1)c1ccc(C2CCN(C(=O)c3cnc(C4CC4)s3)CC2)cc1` [Example 1084, 4-{1-[(2-cyclopropyl-1,3-thiazol-5-yl)carbonyl]piperidin-4-yl}-N-(imidazo[1,2-a]pyridin-7-ylmethyl)benzamide], it took 14.8 nM to reach half-maximal inhibition (IC50).

`O=C(NCc1ccn2ccnc2c1)c1ccc(C2CCN(C(=O)c3nc4c(s3)CCCC4)CC2)cc1` [Example 1000, N-(imidazo[1,2-a]pyridin-7-ylmethyl)-4-[1-(4,5,6,7-tetrahydro-1,3-benzothiazol-2-ylcarbonyl)piperidin-4-yl]benzamide] had an IC50 of 81.8 nM.

As for `CC1(Cn2cc(-c3ccc(C(=O)NCc4ccn5ccnc5c4)s3)cn2)CCN(CCN2CCNCC2)CC1` [Example 1163, N-(imidazo[1,2-a]pyridin-7-ylmethyl)-5-[1-({4-methyl-1-[2-(piperazin-1-yl)ethyl]piperidin-4-yl}methyl)-1H-pyrazol-4-yl]thiophene-2-carboxamide], it took 2.7 nM to reach half-maximal inhibition (IC50).

Values taken from patent US9187472B2 (AbbVie Inc., priority 2012, dated 2015).
